Measurements from patent US20140377340A1, “HLA-DR BINDING PEPTIDES AND THEIR USES” (priority 2007, published 2014).
Ends that are not written are not given here.

Tests used:
[1] = biological target: T1, purified HLA DRB1*1501 (Homo sapiens, UniProt P01903+P01911); assay: HLA-DR radioligand binding inhibition assay, DRB1*1501
T1 construct: purified from EBV transformed homozygous cell lines or single MHC allele transfected 721.221, C1R, or fibroblast lines; made in house
Summary of the method: (§1)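 Competition binding: 1-10 nM radiolabeled peptide + 1 μM–1 nM HLA-DR, protease inhibitor cocktail, 2 d, RT or 37° C., pH 4–7. LB3.1 capture 3 h in 0.05% NP40/PBS; scintillation counting.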

[2] = biological target: T2, purified HLA DRB1*0401 (Homo sapiens, UniProt P01903+P01911, A100K/A169T/F76Y/I96L/K127E/L162R/M171V/N62H/P40V/Q125Y/R42H/S133A/S149N/S66Y/V115G/V209L/W38E); assay: HLA-DR radioligand binding inhibition assay, DRB1*0401; details: IC50 nM purified HLA DRB1 *0401, purified HLA DRB1*0401
T2 construct: purified from EBV transformed homozygous cell lines or single MHC allele transfected 721.221, C1R, or fibroblast lines; made in house
Summary of the method: as §1

[3] = biological target: T3, purified HLA DRB1*0301 (Homo sapiens, UniProt P01903+P01911, A100K/A102G/A103R/A169T/F55Y/I96L/K41T/L162R/M171V/P40S/Q125H/Q178H/Q39Y/R42S/S66N/T106N/T262R/W38E/Y61H); assay: HLA-DR radioligand binding inhibition assay, DRB1*0301; details: IC50 nM purified HLA DRB1 *0301, purified HLA DRB1*0301
T3 construct: purified from EBV transformed homozygous cell lines or single MHC allele transfected 721.221, C1R, or fibroblast lines; made in house
Procedure: (§2) Instead, wells of an opaque white 96-well Optiplate (Packard) are coated with 3 μg (100 μl@ 30 μg/ml) of HLA-specific antibody (Ab) that “capture” complexes of radiolabeled MHC and unlabeled peptide transferred from the molecular binding assay plate in 100 μl of 0.05% NP40/PBS. After a 3-hour incubation period, the supernatant is decanted and scintillation fluid (Microscint 20) added. Captured complexes are then measured on a microplate scintillation and luminescence counter (TopCount NXTTM; Packard).
(§3) HLA-DR purification. Fifteen distinct HLA-DR molecules were used in quantitative assays to measure the binding of peptides to solubilized HLA-DR molecules. […] Briefly, columns of inactivated Sepharose CL4B and Protein A Sepharose were used as pre-columns. HLA-DR molecules were captured by passage of lysates over LB3.1 monoclonal antibody (anti-HLA-DRA) columns. Antibody columns were washed with 10 mM Tris-HCL, pH8.0 with 1% (v/v) NP-40, followed by PBS containing 0.4% (w/v) n-octylglucoside.
(§4) Briefly, 1-10 nM of radiolabeled peptide was co-incubated for 2 days at either room temperature or 37° C. with 1 μM to 1 nM purified HLA-DR molecules in the presence of a cocktail of protease inhibitors. Assays were performed at various pH conditions, ranging from pH 4 to pH 7. […] After incubation, the percentage of HLA-DR-bound radioactivity is determined by capturing HLA-DR/peptide complexes on Optiplates (Packard Instruments, Meriden, Conn.) coated with the LB3.1 antibody and determining bound counts per minute using the TopCount microscintillation counter (Packard Instruments).

[4] = biological target: T4, purified HLA DRB1*0101 (Homo sapiens, UniProt P01903+P01911, A100R/D57E/F55L/F60I/F76Y/I96L/L162R/M171V/P40L/Q125E/R42F/V115G/Y59C); assay: HLA-DR radioligand binding inhibition assay, DRB1*0101; details: IC50 nM purified HLA DRB1 *0101, purified HLA DRB1*0101
T4 construct: purified from EBV transformed homozygous cell lines or single MHC allele transfected 721.221, C1R, or fibroblast lines; made in house
Summary of the method: as §1

[5] = biological target: T5, purified HLA DRB4*0101 (Homo sapiens, UniProt P01903+P13762, G164S); assay: HLA-DR radioligand binding inhibition assay, DRB4*0101; details: IC50 nM purified HLA DRB4 *0101, purified HLA DRB4*0101
T5 construct: purified from EBV transformed homozygous cell lines or single MHC allele transfected 721.221, C1R, or fibroblast lines; made in house
Summary of the method: as §1

[6] = biological target: T6, purified HLA DRB5*0101 (Homo sapiens, UniProt P01903+Q30154); assay: HLA-DR radioligand binding inhibition assay, DRB5*0101; details: IC50 nM purified HLA DRB5 *0101, purified HLA DRB5*0101
T6 construct: purified from EBV transformed homozygous cell lines or single MHC allele transfected 721.221, C1R, or fibroblast lines; made in house
Summary of the method: as §1

[7] = biological target: T7, purified HLA DRB1*0701 (Homo sapiens, UniProt P01903+P01911, A100R/A102G/A103Q/D57E/D86V/E43K/F76Y/K127E/L162R/M171V/P40G/Q125H/Q99D/R33Q/R42Y/R54Q/S133A/S66F/T210M/V115G/Y107V/Y59L/Y89S); assay: HLA-DR radioligand binding inhibition assay, DRB1*0701; details: IC50 nM purified HLA DRB1 *0701, purified HLA DRB1*0701
T7 construct: purified from EBV transformed homozygous cell lines or single MHC allele transfected 721.221, C1R, or fibroblast lines; made in house
Summary of the method: as §1

[8] = biological target: T8, purified HLA DRB1*1101 (Homo sapiens, UniProt P01903+P01911, A100R/A169T/A87E/I96F/K41T/L162R/M171V/P40S/Q125H/Q178H/Q39Y/Q99D/R42S/S66Y/T262R/V115G/W38E); assay: HLA-DR radioligand binding inhibition assay, DRB1*1101; details: IC50 nM purified HLA DRB1 *1101, purified HLA DRB1*1101
T8 construct: purified from EBV transformed homozygous cell lines or single MHC allele transfected 721.221, C1R, or fibroblast lines; made in house
T8 sequence (P01903 26-254, other chains not shown): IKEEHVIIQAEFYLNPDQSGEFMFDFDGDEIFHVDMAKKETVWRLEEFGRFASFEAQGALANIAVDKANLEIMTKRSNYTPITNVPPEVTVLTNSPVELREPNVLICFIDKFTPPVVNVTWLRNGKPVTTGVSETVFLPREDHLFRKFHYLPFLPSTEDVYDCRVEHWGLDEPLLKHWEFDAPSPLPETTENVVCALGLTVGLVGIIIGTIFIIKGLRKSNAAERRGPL
Summary of the method: as §1

[9] = biological target: T9, purified HLA DRB1*0405 (Homo sapiens, UniProt P01903+P01911, A100R/A169T/D86S/F76Y/I96L/K127E/L162R/M171V/N62H/P40V/Q125Y/R42H/S133A/S149N/S66Y/V115G/V209L/W38E); assay: HLA-DR radioligand binding inhibition assay, DRB1*0405; details: IC50 nM purified HLA DRB1 *0405, purified HLA DRB1*0405
T9 construct: purified from EBV transformed homozygous cell lines or single MHC allele transfected 721.221, C1R, or fibroblast lines; made in house
Summary of the method: as §1

[10] = biological target: T10, purified HLA DRB1*1302 (Homo sapiens, UniProt P01903+P01911, A100E/A169T/K41T/L162R/M171V/P40S/Q125H/Q178H/Q39Y/Q99D/R42S/S66N/T262R/V115G/W38E/Y61H); assay: HLA-DR radioligand binding inhibition assay, DRB1*1302
T10 construct: purified from EBV transformed homozygous cell lines or single MHC allele transfected 721.221, C1R, or fibroblast lines; made in house
Summary of the method: as §1

[11] = biological target: T11, purified HLA DRB1*0404 (Homo sapiens, UniProt P01903+P01911, A100R/A169T/F76Y/I96L/K127E/L162R/M171V/N62H/P40V/Q125Y/R42H/S133A/S149N/S66Y/V209L/W38E); assay: HLA-DR radioligand binding inhibition assay, DRB1*0404; details: IC50 nM purified HLA DRB1 *0404, purified HLA DRB1*0404
T11 construct: purified from EBV transformed homozygous cell lines or single MHC allele transfected 721.221, C1R, or fibroblast lines; made in house
Procedure: as §2, §3, §4

[12] = biological target: T12, purified HLA DRB1*1201 (Homo sapiens, UniProt P01903+P01911, A100R/A169T/D57E/D86V/F55L/H45Y/K41T/L162R/M171V/P40S/Q125H/Q178H/Q39Y/Q99D/R42G/S66L/T262R/V114A/V67L/W38E/Y59H/Y61H/Y89S); assay: HLA-DR radioligand binding inhibition assay, DRB1*1201
T12 construct: purified from EBV transformed homozygous cell lines or single MHC allele transfected 721.221, C1R, or fibroblast lines; made in house
Procedure: as §2
as §3, with “n-octylglucoside. […] The pH was reduced to 8.0 and the eluates were concentrated by centrifugation in Centriprep 30 concentrators at 2000 rpm (Amicon, Beverly, Mass.).” for “n-octylglucoside.”
as §4, with “Instruments). […] Competitor peptides are tested in 2-4 complete, independent experiments, at concentrations ranging from […].” for “Instruments).”

Molecule	IC50 [1]	IC50 [2]	IC50 [3]	IC50 [4]	IC50 [5]	IC50 [6]	IC50 [7]	IC50 [8]	IC50 [9]	IC50 [10]	IC50 [11]	IC50 [12]
CSCC[C@H](NC(=O)[C@H](CC(N)=O)NC(=O)[C@H](CCC(N)=O)NC(=O)[C@H](CCC(N)=O)NC(=O)[C@H](C)NC(=O)[C@H](CCC(N)=O)NC(=O)[C@H](CCCNC(=N)N)NC(=O)[C@H](CC(C)C)NC(=O)[C@H](CO)NC(=O)[C@H](CO)NC(=O)[C@H](CCC(=O)O)NC(=O)[C@H](CC(C)C)NC(=O)[C@H](CC(C)C)NC(=O)[C@H](C)NC(=O)[C@@H](N)CCC(=O)O)C(=O)O [Peptide 9019.0014]	8180 nM	605 nM	151 nM	8210 nM	4030 nM	> 20000 nM	> 20000 nM	756 nM	12900 nM	4750 nM		
CC[C@H](C)[C@H](N)C(=O)N[C@@H](CO)C(=O)N[C@@H](C)C(=O)N[C@H](C(=O)N[C@H](C(=O)NCC(=O)N[C@H](C(=O)N[C@@H](CC(C)C)C(=O)N[C@@H](CC(C)C)C(=O)N[C@H](C(=O)N[C@H](C(=O)N[C@H](C(=O)N[C@@H](CC(C)C)C(=O)NCC(=O)N[C@H](C(=O)O)C(C)C)C(C)C)C(C)C)C(C)C)[C@@H](C)CC)C(C)C)C(C)C [Peptide 9019.0067]	6000 nM	450 nM			3110 nM	> 20000 nM	941 nM	5140 nM	447 nM	443 nM	3000 nM	
TMRLPDERGPLEHLY [Peptide 9019.0021]			> 20000 nM									
EELLQMELLLVNKLK [Peptide 9019.0010]			3380 nM									
CC[C@H](C)[C@H](N)C(=O)N[C@@H](CC(N)=O)C(=O)NCC(=O)N[C@H](C(=O)N1CCC[C@H]1C(=O)N[C@@H](CCC(N)=O)C(=O)N[C@@H](CCC(N)=O)C(=O)N[C@@H](Cc1c[nH]cn1)C(=O)N[C@H](C(=O)N[C@@H](CCC(N)=O)C(=O)N[C@H](C(=O)N[C@@H](CC(C)C)C(=O)N[C@@H](Cc1ccccc1)C(=O)N[C@H](C(=O)N[C@@H](C)C(=O)O)[C@@H](C)CC)C(C)C)[C@@H](C)O)[C@@H](C)CC [Peptide 9019.0139]	8290 nM	181 nM		682 nM	2700 nM	> 20000 nM	31 nM	> 20000 nM	942 nM		680 nM	
CC[C@H](C)[C@H](NC(=O)[C@H](CCCNC(=N)N)NC(=O)CNC(=O)[C@H](CCCNC(=N)N)NC(=O)[C@@H](NC(=O)[C@@H](NC(=O)[C@H](CCC(N)=O)NC(=O)[C@H](CC(C)C)NC(=O)[C@@H](N)CC(N)=O)C(C)C)[C@@H](C)CC)C(=O)N[C@@H](CC(C)C)C(=O)N[C@@H](Cc1c[nH]cn1)C(=O)N[C@@H](CC(N)=O)C(=O)NCC(=O)N[C@@H](C)C(=O)N[C@@H](Cc1ccc(O)cc1)C(=O)O [Peptide 9019.0053]				1.9 nM		28 nM				9.9 nM		47 nM
CC(C)C[C@H](NC(=O)[C@H](C)NC(=O)[C@H](Cc1ccc(O)cc1)NC(=O)[C@H](CC(N)=O)NC(=O)[C@H](CC(=O)O)NC(=O)[C@H](CCC(=O)O)NC(=O)[C@H](Cc1ccccc1)NC(=O)[C@H](CC(C)C)NC(=O)[C@H](CCC(N)=O)NC(=O)[C@@H](NC(=O)CN)[C@@H](C)O)C(=O)N[C@@H](C)C(=O)N[C@H](C(=O)N[C@@H](CC(C)C)C(=O)N[C@@H](CC(=O)O)C(=O)O)C(C)C [Peptide 9019.0001]	450 nM	640 nM	29 nM	210 nM				9130 nM		4 nM		
WNLAAMTPHDFIEHF [Peptide 9019.0013]			6420 nM									
